Assay results published in US12454529B2, “Piperazine cyclic ureas” (SIRONAX LTD., priority 2020, dated 2025).

system: HT-29 cells; assay: HT-29 cell necrosis/necroptosis inhibition (TNF-α + SMAC mimetic + zVAD-FMK; CellTiter-Glo cell viability); type: cell-based; conditions: Homo sapiens, HT-29, 20 h, read-out: EC50 (Cell activity; Necrosis/Necroptosis Inhibitory Activity, Compounds 1-142)
Protocol: Compounds 1-319 (denoted as Compound Nos. 1 through 319 in Table 3 and 4) of the disclosure were tested for binding and cellular RIP1 inhibitory activity following the experimental procedures described below.
• Cell line: HT-29 (ATCC® HTB-38™) • Culture medium: McCOY's 5A, Gibco, Cat No. 16600-082 • FBS, Gibco, Cat No. 10099-141C • Trypsin: Gibco, Cat No. 25200-056 • DMSO: Sigma, Cat No. 67-68-5, 1L • Assay plate: Corning #3903 • Compound dilution plate: Corning #3357 • Inducers: TNFα, GenScript, Cat No. Z01001-50, • SmacM, Cat. No., HY-15989, MedChemExpress (MCE) • Z_VAD FMK, TargetMol, T6013 • Cell Titer-Glo® Luminescent Cell Viability Assay Kit: Promega, Cat No. G7573 • EnVision: PerkinElmer, 2105-0010 Methods Cell Seeding
1. HT-29 cells were checked every day to make sure that they were healthy and growing as expected. They were subjected to sub-culturing when they were approximately 80% confluent.
2. The culture medium, McCOY's 5A medium (Gibco, Cat No. 16600-082) with 10% fetal bovine serum or FBS (Gibco, Cat No. 10099-141C), was pre-warmed in a 37° C. water bath for at least 30 min.
3. When the cells had reached a desired level of confluency of 80% in a T75 flask, the medium was aspirated, and the cells were washed with warm phosphate buffered saline or PBS two times.
4. 2-3 ml fresh warm trypsin (Gibco, Cat No. 25200-056) solution was added to the washed cells. The flask with the cells was transferred to a 37° C. incubator.
5. After 5 minutes, the side of the flask was tapped, and the flask was examined under a microscope for detachment of the cells to the flask. If necessary, the cells were kept in the incubator for an additional 5-10 minutes, with occasional tapping, until lifting was complete.
6. The trypsin reaction was neutralized by transferring 6-9 ml cell culture medium to sterile 15 ml conical tubes, and by centrifuging the cell culture at 300×g for 7 minutes to pellet the cells (supernatant decanted).
7. The cells were resuspended in fresh cell culture medium and the cell counting was performed using a hemocytometer.
8. 100 μl of the resuspended cell culture medium containing ˜5,000 cells were transferred into each well of the sterile 96-well cell culture plate (Corning 3903) and cultured overnight at 37° C. with 5% CO2.
Compound Titration and Treatment
1. All test compounds were dissolved in DMSO (Dimethyl sulfoxide) to create a 20 mM stock.
2. 3 μl of each compound 20 mM stock was mixed with 27 μl DMSO, and the compound solution was further diluted at a titration ratio of 1:3 (20 μl compound solution+40 μl DMSO) till the 10 points end.
3. All culture medium was removed from assay plates filled with HT-29 cell cultures. The cells were then washed with 1 PBS, and resuspended in fresh, FBS-free McCOY's 5A medium containing a cocktail of TNF-α (10 ng/ml), a SMAC mimetic compound (6 μM) and Z-VAD-fluoromethylketone or zVAD-FMK (10 μM) to stimulate the HT-29 cells to increase RIP1 kinase levels and necroptosis.
4. 0.5 μL of the diluted compound solution was added to the corresponding 96-well assay plates.
5. The assay plates were incubated for 20 hours at 37° C. with 5% CO2.
1. The CellTiter-Glo® Luminescent Cell Viability Assay was employed to detect the ATP levels of viable HT-29 cells.
2. The CellTiter-Glo® buffer and the lyophilized substrate were equilibrated to room temperature prior to use.
3. The CellTiter-Glo® substrate was resuspended with CellTiter-Glo® buffer, then mixed by gently vortexing to obtain a homogeneous solution.
4. 20 μl the enzyme/substrate mixture was transferred by multi-channel pipetting into 96-well assay plates.
5. The assay plates were placed on an orbital shaker and the contents were shaken for 3 minutes to induce cell lysis.
6. The assay plates were incubated at room temperature for 10 minutes to stabilize the luminescent signal.
7. The luminescence signals were read and recorded with EnVision.
8. The geometric mean EC50 values were calculated from 10 points response dose with duplicates. In

Row | SMILES | EC50
1 | Cc1nn(CC#N)c(C)c1-c1nc(N2CCN(C(=O)N3N=CC[C@H]3c3cc(F)cc(C#N)c3)CC2)ncc1F [Compound 136, (S)-3-(1-(4-(4-(1-(cyanomethyl)-3,5-dimethyl-1H-pyrazol-4-yl)-5-fluoropyrimidin-2-yl)piperazine-1-carbonyl)-4,5-dihydro-1H-pyrazol-5-yl)-5-fluorobenzonitrile] | 0.1 to 100 nM

same assay, conditions: Homo sapiens, HT-29, 20 h, read-out: EC50 (Cell activity; Necrosis/Necroptosis Inhibitory Activity, Compounds 143-323)

Row | SMILES | EC50
2 | Cc1ncc(C#N)n1-c1nc(N2CCN(C(=O)N3N=CC[C@H]3c3cc(F)cc(C#N)c3)CC2)ncc1F [Compound 148, 1-(2-(4-((S)-5-(3-cyano-5-fluorophenyl)-4,5-dihydro-1H-pyrazole-1-carbonyl)piperazin-1-yl)-5-fluoropyrimidin-4-yl)-2-methyl-1H-imidazole-5-carbonitrile] | 0.1 to 100 nM

same assay, conditions: Homo sapiens; HT-29 cells, TNF-α 10 ng/ml + SMAC mimetic 6 μM + zVAD-FMK 10 μM, 20 hours; geometric mean, 10 points in duplicate; read-out: EC50 (Cell activity; Necrosis/Necroptosis Inhibitory Activity, Compounds 1-142)

Row | SMILES | EC50
3 | Cc1nn(CC2CCOC2)c(C)c1-c1nc(N2CCN(C(=O)N3N=CC[C@H]3c3cc(F)cc(C#N)c3)CC2)ncc1F (stereo partly drawn) [Compound 132, 3-((5S)-1-(4-(4-(3,5-dimethyl-1-((tetrahydrofuran-3-yl)methyl)-1H-pyrazol-4-yl)-5-fluoropyrimidin-2-yl)piperazine-1-carbonyl)-4,5-dihydro-1H-pyrazol-5-yl)-5-fluorobenzonitrile] | 0.1 to 100 nM
4 | Cc1cc(-c2nc(N3CCN(C(=O)N4N=CC[C@H]4c4cc(F)cc(F)c4)CC3)ccc2F)n(C)n1 [Compound 115, (S)-(5-(3,5-difluorophenyl)-4,5-dihydro-1H-pyrazol-1-yl)(4-(6-(1,3-dimethyl-1H-pyrazol-5-yl)-5-fluoropyridin-2-yl)piperazin-1-yl)methanone] | 0.1 to 100 nM
5 | N#Cc1cc(F)cc([C@@H]2CC=NN2C(=O)N2CCN(c3ncc(F)c(-c4cc[nH]n4)n3)CC2)c1 [Compound 22, (S)-3-fluoro-5-(1-(4-(5-fluoro-4-(1H-pyrazol-3-yl)pyrimidin-2-yl)piperazine-1-carbonyl)-4,5-dihydro-1H-pyrazol-5-yl)benzonitrile] | 0.1 to 100 nM

same assay, conditions: Homo sapiens; HT-29 cells, TNF-α 10 ng/ml + SMAC mimetic 6 μM + zVAD-FMK 10 μM, 20 hours; geometric mean, 10 points in duplicate; read-out: EC50 (Cell activity; Necrosis/Necroptosis Inhibitory Activity, Compounds 143-323)

Row | SMILES | EC50
6 | O=C(N1CCN(c2ncc(F)c(-n3cnc(C(F)(F)F)n3)n2)CC1)N1N=CC[C@H]1c1ccccc1 [Compound 312, (S)-(4-(5-fluoro-4-(3-(trifluoromethyl)-1H-1,2,4-triazol-1-yl)pyrimidin-2-yl)piperazinyl)(5-phenyl-4,5-dihydro-1H-pyrazol-1-yl)methanone] | 0.1 to 100 nM
7 | Cc1nc(CO)nn1-c1nc(N2CCN(C(=O)N3N=CC[C@H]3c3cc(F)cc(F)c3)CC2)ncc1F [Compound 251, (S)-(5-(3,5-difluorophenyl)-4,5-dihydro-1H-pyrazol-1-yl)(4-(5-fluoro-4-(3-(hydroxymethyl)-5-methyl-1H-1,2,4-triazol-1-yl)pyrimidin-2-yl)piperazinyl)methanone] | 0.1 to 100 nM
8 | Cc1nn2c(c1-c1nc(N3CCN(C(=O)N4N=CC[C@H]4c4cc(F)cc(C#N)c4)CC3)ncc1F)CCC2 [Compound 184, (S)-3-fluoro-5-(1-(4-(5-fluoro-4-(2-methyl-5,6-dihydro-4H-pyrrolo[1,2-b]pyrazol-3-yl)pyrimidin-2-yl)piperazine-1-carbonyl)-4,5-dihydro-1H-pyrazol-5-yl)benzonitrile] | 0.1 to 100 nM
9 | Cc1cnn(C)c1-c1ccc(F)c(N2CCN(C(=O)N3N=CCC3c3cncs3)CC2)n1 (stereo not drawn) [Compound 296, (4-(6-(1,4-dimethyl-1H-pyrazol-5-yl)-3-fluoropyridin-2-yl)piperazinyl)(5-(thiazol-5-yl)-4,5-dihydro-1H-pyrazol-1-yl)methanone] | 0.1 to 100 nM
10 | Cc1nc(C)n(-c2nc(N3CCN(C(=O)N4N=CC[C@H]4c4cc(F)cc(F)c4F)CC3)ncc2F)n1 [Compound 264, (S)-(4-(4-(3,5-dimethyl-1H-1,2,4-triazol-1-yl)-5-fluoropyrimidin-2-yl)piperazin-1-yl)(5-(2,3,5-trifluorophenyl)-4,5-dihydro-1H-pyrazol-1-yl)methanone] | 0.1 to 100 nM
11 | CCn1ncnc1-c1nc(N2CCN(C(=O)N3N=CC[C@H]3c3cc(F)cc(C#N)c3)CC2)ncc1F [Compound 167, (S)-3-(1-(4-(4-(1-ethyl-1H-1,2,4-triazol-5-yl)-5-fluoropyrimidin-2-yl)piperazine-1-carbonyl)-4,5-dihydro-1H-pyrazol-5-yl)-5-fluorobenzonitrile] | 0.1 to 100 nM
12 | Cc1ncc(C2CC=NN2C(=O)N2CCN(c3nc(-c4c(C)cnn4C)ncc3F)CC2)s1 (stereo not drawn) [Compound 162, (4-(2-(1,4-dimethyl-1H-pyrazol-5-yl)-5-fluoropyrimidin-4-yl)piperazin-1-yl)(5-(2-methylthiazol-5-yl)-4,5-dihydro-1H-pyrazol-1-yl)methanone] | 0.1 to 100 nM
13 | Cc1cnn(C)c1-c1nc(N2CCN(C(=O)N3N=CC[C@H]3c3cc(F)cc(F)c3)CC2)sc1CO [Compound 267, (S)-(5-(3,5-difluorophenyl)-4,5-dihydro-1H-pyrazol-1-yl)(4-(4-(1,4-dimethyl-1H-pyrazol-5-yl)-5-(hydroxymethyl)thiazol-2-yl)piperazin-1-yl)methanone] | 1000 to 10000 nM
14 | Cc1c(N)nn(C)c1-c1nc(N2CCN(C(=O)N3N=CC[C@H]3c3cc(F)cc(F)c3)CC2)ncc1F [Compound 155, (S)-(4-(4-(3-amino-1,4-dimethyl-1H-pyrazol-5-yl)-5-fluoropyrimidinyl)piperazin-1-yl)(5-(3,5-difluorophenyl)-4,5-dihydro-1H-pyrazol-1-yl)methanone] | 0.1 to 100 nM
15 | Cc1nc(C)n(-c2nc(N3CCN(C(=O)N4N=CC[C@H]4c4cncc(F)c4)CC3)ncc2F)n1 [Compound 248, (S)-(4-(4-(3,5-dimethyl-1H-1,2,4-triazol-1-yl)-5-fluoropyrimidin-2-yl)piperazin-1-yl)(5-(5-fluoropyridin-3-yl)-4,5-dihydro-1H-pyrazol-1-yl)methanone] | 0.1 to 100 nM
16 | Cc1nn(-c2cc(N3CCN(C(=O)N4N=CC[C@H]4c4cc(F)cc(C#N)c4)CC3)ncn2)c(C)c1C(N)=O [Compound 282, (S)-1-(6-(4-(5-(3-cyano-5-fluorophenyl)-4,5-dihydro-1H-pyrazole-1-carbonyl)piperazin-1-yl)pyrimidin-4-yl)-3,5-dimethyl-1H-pyrazole-4-carboxamide] | 0.1 to 100 nM
17 | Cc1cnn(C)c1-c1ccc(F)c(N2CCN(C(=O)N3N=CCC3c3ncccc3Cl)CC2)n1 (stereo not drawn) [Compound 300, (5-(3-chloropyridin-2-yl)-4,5-dihydro-1H-pyrazol-1-yl)(4-(6-(1,4-dimethyl-1H-pyrazol-5-yl)-3-fluoropyridin-2-yl)piperazin-1-yl)methanone] | 0.1 to 100 nM
18 | Cc1nc(C)n(-c2nc(N3CCN(C(=O)N4N=CC[C@H]4c4cc(F)cc(F)c4)CC3)ncc2Cl)n1 [Compound 259, (S)-(4-(5-chloro-4-(3,5-dimethyl-1H-1,2,4-triazol-1-yl)pyrimidin-2-yl)piperazin-1-yl)(5-(3,5-difluorophenyl)-4,5-dihydro-1H-pyrazol-1-yl)methanone] | 0.1 to 100 nM
